Reference: US4468403A, “Analgesic substituted piperidylidene-2-sulfon(cyan)amide derivatives” (priority 1982, dated 1984)
Entries after “also recorded” stand apart in the source; their conditions may differ. Where two headings read alike, the source gives them in different places.

Columns and labels:
[1] = format: in vivo, male Swiss albino mice; details: for % Inhibn, control (single agent) in antagonist study: alone
Description: (§1) The percent change is calculated according to the following equation: % change=100- (no. of writhes in treated group/no. of writhes in control group)×100.

[2] = Analgesic antagonist testing against morphine sulfate (phenylquinone writhing); format: in vivo, male Swiss albino mice
Description: as §1

[3] = Analgesic antagonist testing against analgesic agonists of the W-1 to W-19 and 0-1 to 0-3 series, e.g. W-3 (phenylquinone writhing); format: in vivo, male Swiss albino mice
Description: as §1

Row | Structure (SMILES) | % Inhibn, control (single agent) in antagonist study ([1]; 0.5 mg/kg sc) | % Inhibn, control (single agent) in antagonist study ([1]; 2.0 mg/kg sc) | % Inhibn, control (single agent) in antagonist study ([1]; 10.0 mg/kg sc) | Analgesic action, inhibition action on phenylquinone writhing: dose giving 50 % inhibition ([1]; subcutaneous, 30 min before phenyl-p-benzoquinone, dose with 50 % inhibition) | Analgesic action, inhibition action on phenylquinone writhing, % inhibition ([1]; subcutaneous, at the dose listed for the substance under E1) | Antagonist activities, % inhibition of writhing with antagonist + agonist ([2]; Expt. 1: W-20 (2.0 mg/kg sc) 10 min before MS (0.2 mg/kg sc)) | Antagonist activities, % inhibition of writhing with antagonist + agonist ([2]; Expt. 2: W-20 (10.0 mg/kg sc) 10 min before MS (0.2 mg/kg sc)) | Block of agonist analgesic effect, in words ([2]; W-20 (2.0 mg/kg sc) vs MS (0.2 mg/kg sc)) | Block of agonist analgesic effect, in words ([2]; W-20 (10.0 mg/kg sc) vs MS (0.2 mg/kg sc)) | Antagonist activities, % inhibition of writhing with antagonist + agonist ([3]; Expt. 3: W-20 (0.5 mg/kg sc) 10 min before W-3 (2.0 mg/kg sc)) | Antagonist activities, % inhibition of writhing with antagonist + agonist ([3]; Expt. 4: W-20 (2.0 mg/kg sc) 10 min before W-3 (2.0 mg/kg sc)) | Block of agonist analgesic effect, in words ([3]; W-20 (0.5 mg/kg sc) vs W-3 (2.0 mg/kg sc)) | Block of agonist analgesic effect, in words ([3]; W-20 (2.0 mg/kg sc) vs W-3 (2.0 mg/kg sc)) | Antagonist activities, % inhibition of writhing with antagonist + agonist ([3]; Expt. 5: Naloxone (1.0 mg/kg sc) before W-3 (5.0 mg/kg sc)) | Block of agonist analgesic effect, in words ([3]; Naloxone (1.0 mg/kg sc) vs W-3 (5.0 mg/kg sc)) | Antagonist activity, in words ([3]; toward W-3, dose not given)
1 | O=S(=O)(N=C1CCCCN1CC1CC1)c1ccc(Cl)cc1 [Compound W-20, 1-Cyclopropylmethylpiperidylidene-2-(4-chlorophenyl)sulfonamide] | 36% | 46% | 69% | 2.3 mg/kg | 50% | 55% | 66% | near complete block | complete block; also recorded: completely blocks | 53% | 49% | partial block | complete block; also recorded: completely blocks | – | – | –
2 | C=CCN1CC[C@]23c4c5ccc(O)c4O[C@H]2C(=O)CC[C@@]3(O)[C@H]1C5 [Naloxone, reference compound] | – | – | – | – | – | – | – | – | – | – | – | – | – | 45% | partial block; also recorded: partially blocks | acted as an antagonist toward W-3
